Source: patent US20100210536A1, “USE OF LEPTIN (22-56 ) AS A THERAPEUTIC AGENT” (priority 2007, published 2010)
Where no end group is shown, it is not given here.

System: drug-resistant Mycobacterium tuberculosis
Conditions: peptide 10 micrograms per ml, seven days

## VPIQKVQDDTKTLIKTIVTRINDISHTQSVSSKQK-OH [Leptin (22-56)]
  % inhibition: 0.0%
